# Test results published in publication PMC9788223, “Biodegradation of Free Gossypol by Helicoverpa armigera Carboxylesterase Expressed in Pichia pastoris” (Toxins, 2022).
# Columns and labels:
# CarE CCE001a [1] = target: T1, CarE CCE001a (Helicoverpa armigera, UniProt D9IV61); assay: free gossypol depletion by HPLC; products by UPLC-QTOF/MS; format: cell-based; conditions: PBS, NADPH-Na4 added, 37 °C, 1.5 h, dark; recombinant protein from P. pastoris expression, purification not described
# T1 construct: no purification described
# T1 sequence (D9IV61 17-555): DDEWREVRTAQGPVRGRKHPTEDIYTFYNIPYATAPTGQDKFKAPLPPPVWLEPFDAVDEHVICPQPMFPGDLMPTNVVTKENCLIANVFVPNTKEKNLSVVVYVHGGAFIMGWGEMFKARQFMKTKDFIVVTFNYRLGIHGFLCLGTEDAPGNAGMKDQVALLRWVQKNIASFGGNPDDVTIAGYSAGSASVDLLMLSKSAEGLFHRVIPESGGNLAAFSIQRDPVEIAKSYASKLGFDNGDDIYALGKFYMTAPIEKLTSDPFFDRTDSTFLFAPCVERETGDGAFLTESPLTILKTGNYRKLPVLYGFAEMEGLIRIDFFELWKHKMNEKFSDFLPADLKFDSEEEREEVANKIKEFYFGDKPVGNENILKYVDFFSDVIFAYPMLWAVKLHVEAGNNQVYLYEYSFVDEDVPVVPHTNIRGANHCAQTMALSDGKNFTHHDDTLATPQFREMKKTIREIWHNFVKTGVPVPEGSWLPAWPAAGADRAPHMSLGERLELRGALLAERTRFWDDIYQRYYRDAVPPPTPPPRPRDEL
# CarE CCE001a [2] = target: T1, CarE CCE001a; assay: esterase activity, absorbance at […] nm; format: cell-based; conditions: 37 °C; recombinant protein from P. pastoris expression, purification not described
SMILES,free gossypol depletion by HPLC; products by UPLC-QTOF/MS (CarE CCE001a [1]),"esterase activity, absorbance at 450 nm (CarE CCE001a [2])"
Cc1cc2c(C(C)C)c(O)c(O)c(C=O)c2c(O)c1-c1c(C)cc2c(C(C)C)c(O)c(O)c(C=O)c2c1O [Gossypol],"Under the influence of recombinant CarE, TG and FG levels decreased rapidly in the experimental group",–
CC(=O)Oc1cccc2ccccc12 [alpha-naphthyl acetate],–,We also evaluated the enzyme activity of the recombinant CCE001a protein with the model substrate
